Test results from patent publication US20240174634A1, “Aldehyde Dehydrogenase Inhibitors and Their Therapeutic Use” (priority 2020, published 2024).

Molecular target: T1, ALDH1A3 (Homo sapiens, UniProt P47895)
T1 sequence (P47895 1-512): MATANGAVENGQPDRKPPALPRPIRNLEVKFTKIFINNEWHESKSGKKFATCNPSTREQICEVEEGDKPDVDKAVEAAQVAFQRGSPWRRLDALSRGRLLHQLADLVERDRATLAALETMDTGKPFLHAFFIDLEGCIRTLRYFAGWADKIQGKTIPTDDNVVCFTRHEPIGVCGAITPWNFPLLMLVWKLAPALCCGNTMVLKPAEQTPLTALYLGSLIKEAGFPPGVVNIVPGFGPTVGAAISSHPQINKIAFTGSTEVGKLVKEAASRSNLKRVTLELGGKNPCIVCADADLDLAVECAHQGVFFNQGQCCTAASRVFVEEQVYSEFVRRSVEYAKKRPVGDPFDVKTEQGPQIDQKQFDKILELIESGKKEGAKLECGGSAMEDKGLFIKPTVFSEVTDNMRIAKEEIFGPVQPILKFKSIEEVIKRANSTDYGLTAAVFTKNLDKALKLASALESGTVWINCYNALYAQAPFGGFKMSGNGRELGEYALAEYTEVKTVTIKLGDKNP
Assay: ALDH1A3 cellular assay (ALDEFLUOR) in WM266.4 melanoma cells
Assay type: cell-based
Conditions: WM266.4 cells; 60 min incubation; percentage of ALDH-positive cells
In short: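 WM266.4 melanoma cells, 7500 per well, incubated overnight, then 60 min at 37 °C with compound (10 μM to 0.0005 μM, 10 points) plus BAAA substrate (500 nM final), verapamil (50 μM) and Hoechst. Imaged BODIPY fluorescence per cell; EC50 from percentage of ALDH-positive cells.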

| Structure (SMILES) | IC50 [nM] |
| --- | --- |
| O=C1CSc2cc(OCCN3CCCC3c3cccc(F)c3)ccc2N1 (stereo not shown) [ALDHI-2008, 7-[2-[2-(3-fluorophenyl)pyrrolidin-1-yl]ethoxy]-4H-1,4-benzothiazin-3-one] | < 100 |
| O=C1CCc2cc(NC(=O)c3sc(N4CCNCC4)nc3-c3cccc(F)c3)ccc2N1 [ALDHI-1005, 4-(3-fluorophenyl)-N-(2-oxo-3,4-dihydro-1H-quinolin-6-yl)-2-piperazin-1-yl-thiazole-5-carboxamide] | < 100 |
| COc1cccc(C2CCCN2CCOc2ccc3c(c2)CCC(=O)N3)c1 (stereo not shown) [ALDHI-2034, 6-[2-[2-(3-methoxyphenyl)pyrrolidin-1-yl]ethoxy]-3,4-dihydro-1H-quinolin-2-one] | 1000 to 10000 |
| CC1(c2ccccc2)COCCN1CCOc1ccc2c(c1)CCC(=O)N2 (stereo not shown) [ALDHI-2040, 6-[2-(3-methyl-3-phenyl-morpholin-4-yl)ethoxy]-3,4-dihydro-1H-quinolin-2-one] | 100 to 1000 |
